Source: US7189679B2, “Herbicidal 3-amino-2-thiomethylbenzoylpyrazoles” (Bayer CropScience GmbH, priority 2004, dated 2007)

Columns and labels:
Assay type in all cases: in vivo
[1] = tested on: Chenopodium album; assay: Post-emergence herbicidal action against weed plants; details: three-leaf stage, 320 g/ha, scored after 3 to 4 weeks
Method: (§1) Seeds of mono- and dicotyledonous weed plants are placed in sandy loam in cardboard pots, covered with soil and grown in the greenhouse under good growth conditions. Two to three weeks after sowing, the test plants are treated at the three-leaf stage. The compounds according to the invention, formulated as wettable powders or as emulsifiable concentrates, are sprayed at various dosages onto the surface of the green plant parts at an application rate of 600 to 800 l of water per ha (converted). After the test plants have been left to stand in the greenhouse for 3 to 4 weeks under optimal growth conditions, the effect of the compounds is scored.

[2] = tested on: Sinapis arvensis; assay: as above; details: three-leaf stage, 320 g/ha, scored after 3 to 4 weeks
Method: as §1

[3] = tested on: Setaria viridis; assay: as above; details: three-leaf stage, 320 g/ha, scored after 3 to 4 weeks
Method: as §1

[4] = tested on: Amaranthus retroflexus; assay: as above; details: three-leaf stage, 320 g/ha, scored after 3 to 4 weeks
Method: as §1

[5] = tested on: Stellaria media; assay: as above; details: three-leaf stage, 320 g/ha, scored after 3 to 4 weeks
Method: as §1

[6] = tested on: Fallopia convolvulus; assay: as above; details: three-leaf stage, 320 g/ha, scored after 3 to 4 weeks
Method: as §1

[7] = tested on: Echinochloa crus-galli; assay: as above; details: three-leaf stage, 320 g/ha, scored after 3 to 4 weeks
Method: as §1

[8] = tested on: rice; assay: Crop plant tolerance test, damage to crop plant; details: 100 g/ha, visual scoring four to five weeks after application
[9] = tested on: Echinochloa crus-galli; assay: Crop plant tolerance test, action against weed plants; details: 100 g/ha, visual scoring four to five weeks after application
Method: as §1
(§2) In further greenhouse experiments, seeds of barley and of monocotyledonous and dicotyledonous weed plants are placed in sandy loam, covered with soil and placed in the greenhouse until the plants have developed two to three true leaves. Then they are treated with the compounds of the formula (I) according to the invention, as described above in section 2.

[10] = tested on: Sagittaria pygmaea; assay: as above; details: 100 g/ha, visual scoring four to five weeks after application
Method: as §1, with “After the test plants have been left to stand in the greenhouse for 3 to 4 weeks under optimal growth conditions, the effect of the compounds is scored.” left out
as §2

[11] = tested on: Cyperus serotinus; assay: as above; details: 100 g/ha, visual scoring four to five weeks after application
Method: as §1, with “After the test plants have been left to stand in the greenhouse for 3 to 4 weeks under optimal growth conditions, the effect of the compounds is scored.” left out
as §2

[12] = tested on: Scirpus juncoides; assay: as above; details: 100 g/ha, visual scoring four to five weeks after application
Method: as §1, with “After the test plants have been left to stand in the greenhouse for 3 to 4 weeks under optimal growth conditions, the effect of the compounds is scored.” left out
as §2

| SMILES | activity against Chenopodium album [1] | activity against Sinapis arvensis [2] | activity against Setaria viridis [3] | activity against Amaranthus retroflexus [4] | activity against Stellaria media [5] | activity against Fallopia convolvulus [6] | activity against Echinochloa crus-galli [7] | damage to the crop plant rice [8] | action against Echinochloa crus-galli [9] | action against Sagittaria pygmaea [10] | action against Cyperus serotinus [11] | action against Scirpus juncoides [12] |
| --- | --- | --- | --- | --- | --- | --- | --- | --- | --- | --- | --- | --- |
| CCCS(=O)(=O)Oc1c(C(=O)c2ccc(Br)c(N)c2CS(C)(=O)=O)c(C)nn1C [compound 4] | at least 90% | at least 90% | at least 90% | at least 90% | at least 90% | at least 90% | at least 90% | – | – | – | – | – |
| CCn1ncc(C(=O)c2ccc(Br)c(N)c2CS(C)(=O)=O)c1O [compound 6] | – | – | – | – | – | – | – | no damage | at least 95% | at least 95% | at least 95% | at least 95% |
